Reference: patent publication US20220296534A1 (SOCIETE DES PRODUITS NESTLE S.A., priority 2019, published 2022)

Columns and labels:
INS-1 cells = assay: Glucose stimulated insulin secretion (GSIS) in INS-1 cells, insulin by ELISA; assay type: cell-based, rat; conditions: FIG. 2
Description: INS-1 cellular model: The β pancreatic INS-1 cells were selected for their insulin secretion profile in response to glucose and to other physiological or pharmacological insulin secretagogues such as sulfonylureas and GLP-1. The cells were cultured in complete medium, RPMI 1640 11 mM glucose supplemented with 1 mM sodium pyruvate, 50 μM 2-mercaptoethanol, 2 mM glutamine, 10 mM HEPES, 100 IU/mL penicillin, 100 μg/mL streptomycin and 10% heat-inactivated foetal calf serum (FCS), as described by Asfari et al. (Endocrinology 130: 167-178, 1992). For the insulin secretion assay, INS-1 cells were plated and cultured in 96-well poly ornithine coated plates. The day before insulin secretion test, the medium were removed and replaced by RPMI 5 mM glucose supplemented with FCS 1%. The day of the insulin secretion test, the cells were washed with Krebs-Ringer Bicarbonate HEPES buffer (KRBH; pH 7.4) 0.1% BSA and pre-incubated for 30 min at 37° C. in KRBH 0.1% BSA containing 2.8 mM glucose. The cells were then washed again with KRBH and incubated with the tested ingredients for 60 min in KRBH 0.1% BSA containing glucose (5 or 16 mM). The supernatants were collected and frozen before insulin determination. The insulin concentration in the collected supernatants were measured by an ELISA kit according to the manufacturer recommendations and using a rat insulin antibody (Insulin rat high range ELISA Alpco Cat no 80-INSRTH-E10). Very briefly, rat monoclonal antibodies specific for insulin were immobilized to 96-well plates. Standards, samples and controls were added to the appropriate wells with a horseradish peroxidase enzyme-labeled monoclonal antibody (Conjugate). After incubation, the microplates were washed to remove unbound Conjugate and a TMB substrate solution was added to react with the bound Conjugate. Finally, after addition of a stop solution, the optical density was measured at 450 nm using a reference wavelength of 620 nm. The intensity of the yellow color is directly proportional to the amount of insulin within the samples. […]

human primary islets = assay: Glucose stimulated insulin secretion in human primary islets, insulin by ELISA; assay type: cell-based; conditions: 1 μM, FIG. 3
Description: The insulin concentration in the collected supernatants were measured by an ELISA kit according to the manufacturer recommendations and using a rat insulin antibody (Insulin rat high range ELISA Alpco Cat no 80-INSRTH-E10). Very briefly, rat monoclonal antibodies specific for insulin were immobilized to 96-well plates. Standards, samples and controls were added to the appropriate wells with a horseradish peroxidase enzyme-labeled monoclonal antibody (Conjugate). After incubation, the microplates were washed to remove unbound Conjugate and a TMB substrate solution was added to react with the bound Conjugate. Finally, after addition of a stop solution, the optical density was measured at 450 nm using a reference wavelength of 620 nm. The intensity of the yellow color is directly proportional to the amount of insulin within the samples. Human primary islets: Human islets from non-diabetic deceased male donors were purchased from Tebu-bio (Le-Perray-en-Yvelines, France). […] Insulin in supernatants was determined with specific ELISA kits, according to the manufacturer's instructions (Ultrasensitive Insulin ELISA, ALPCO Diagnostics, Salem, USA). […] Insulin was measured in the cell lysates using specific ELISA kits (Ultrasensitive Insulin ELISA, ALPCO Diagnostics) and normalised to DNA content.

[1] = humans; cited from earlier work

O[C@H]1[C@H](O)[C@@H](O)[C@H](O)[C@@H](O)[C@@H]1O [scyllo-inositol, (1r,2r,3r,4r,5r,6r)-Cyclohexane-1,2,3,4,5,6-hexol]
glucose stimulated insulin secretion (GSIS), expressed as a percentage versus glucose (INS-1 cells; 20 μM scyllo-inositol): 120% | glucose stimulated insulin secretion (GSIS), expressed as a percentage versus glucose (INS-1 cells; 2000 μM scyllo-inositol): 142% | concentration at which GSIS reaches a plateau (INS-1 cells; doses from 20 to 2000 μM): 1000 to 2000 µM | effect on insulin secretion over the control condition (5 mM glucose) (human primary islets): synergistic effect | mean time to reach the maximum level after ingestion [1]: about 3.8 h
